Measured values from patent US12077483B2, “Modified amine lipids” (Intellia Therapeutics, Inc., priority 2018, dated 2024).

Columns and labels:
mouse TTR gene = assay: In vivo editing in mouse liver, LNP with Cas9 mRNA and sgRNA G502, NGS; details: G502, sgRNA:Cas9 mRNA 1:2 w/w, Example 119
Description: CD-1 female mice, ranging from 6-10 weeks of age were used in each study. Animals were weighed and grouped according to body weight for preparing dosing solutions based on group average weight. LNPs were dosed via the lateral tail vein in a volume of 0.2 mL per animal (approximately 10 mL per kilogram body weight). The animals were periodically observed for adverse effects for at least 24 hours post dose.
For studies measuring in vivo editing in liver, CD-1 female mice were dosed at 0.1 mpk unless otherwise noted. Animals were euthanized at 6 or 7 days by exsanguinationvia cardiac puncture under isoflourane anesthesia. Liver tissue was collected from each animal for DNA extraction and analysis. Blood was collected into serum separator tubes or into tubes containing buffered sodium citrate for plasma as described herein. Cohorts of mice were measured for editing by Next-Generation Sequencing (NGS).
In brief, to quantitatively determine the efficiency of editing at the target location in the genome, genomic DNA was isolated and deep sequencing was utilized to identify the presence of insertions and deletions introduced by gene editing.
PCR primers were designed around the target site (e.g., B2M), and the genomic area of interest was amplified. […] The reads were aligned to the relevant reference genome (e.g., GRCm38) after eliminating those having low quality scores. The resulting files containing the reads were mapped to the reference genome (BAM files), where reads that overlapped the target region of interest were selected and the number of wild type reads versus the number of reads which contain an insertion, substitution, or deletion was calculated.
The editing percentage (e.g., the “editing efficiency” or “percent editing”) is defined as the total number of sequence reads with insertions or deletions over the total number of sequence reads, including wild type.
We assessed in vivo editing efficiency for materials delivered with formulations with variable tail lengths through in vivo editing experiments. […]

[1] = Tolerability in rats: liver enzyme panel 24 hours post dose; type: in vivo, rat; details: Sprague Dawley female rats, 6 mg/kg, serum
Description: For efficacy, Sprague Dawley female rats were dosed i.v. at 0.1 mpk or 0.03 mpk. 6-7 days post dose, rats were euthanized by CO2 asphyxiation. Blood was collected into serum separator tubes. Liver biopsy processed for gDNA and assessed for editing by NGS methods described in Example 115. Results are shown in Table 11 and FIGS. 12A and 12B. For tolerability, Sprague Dawley female rats were dosed at 6 mpk and 24 hours post dose the animals were euthanized by CO2 asphyxiation. Blood was collected into serum separator tubes and sent to an external CRO for quantitation of liver enzymes via a liver enzyme panel.

## CCCCC/C=C\C/C=C\CCCCCCCC(=O)OCC(COC(=O)CCCCCCC/C=C\C/C=C\CCCCC)OC(=O)CCC(CCCCCCCC)OC(=O)NCCN1CCCC1 (stereo not drawn) [Compound 51, 2-((4-(((2-(pyrrolidin-1-yl)ethyl)carbamoyl)oxy)dodecanoyl)oxy)propane-1,3-diyl (9Z,9′Z,12Z,12′Z)-bis(octadeca-9,12-dienoate)]
Mouse TTR gene
  efficacy for in vivo editing (in words): efficacious

## CCCCC/C=C\C/C=C\CCCCCCCC(=O)OCC(COC(=O)CCCCCCC/C=C\C/C=C\CCCCC)OC(=O)CCC(CCCCC)OC(=O)NCCN1CCCC1 (stereo not drawn) [Compound 72, 2-((4-(((2-(pyrrolidin-1l-yl)ethyl)carbamoyl)oxy)nonanoyl)oxy)propane-1,3-diyl (9Z,9′Z,12Z,12′Z)-bis(octadeca-9,12-dienoate)]
Mouse TTR gene
  efficacy for in vivo editing (in words): efficacious

## CCCCC/C=C\C/C=C\CCCCCCCC(=O)OCC(COC(=O)CCC(OCCCCCCCC)OCCCCCCCC)COC(=O)OCCCN(CC)CC (stereo not drawn) [Compound 49, 3-((4,4-bis(octyloxy)butanoyl)oxy)-2-((((3-(diethylamino)propoxy)carbonyl)oxy)methyl)propyl (9Z,12Z)-octadeca-9,12-dienoate, reference compound]
[1]
  ALP (U/L): 784.3 U/L
  ALT (U/L): 408.5 U/L
  AST (U/L): 534.8 U/L
  Creatine kinase (U/L): 157.5 U/L
  GGT (U/L): 2 U/L
  Total Bilirubin: 0.6 mg/dL

## CCCCC/C=C\C/C=C\CCCCCCCC(=O)OCC(COC(=O)CCCCCCC/C=C\C/C=C\CCCCC)OC(=O)CCC(CCCCCC)OC(=O)NCCN1CCCC1 (racemic) [Compound 50, 2-((4-(((2-(pyrrolidin-1-yl)ethyl)carbamoyl)oxy)decanoyl)oxy)propane-1,3-diyl (9Z,9′Z,12Z,12′Z)-bis(octadeca-9,12-dienoate)]
[1]
  ALP (U/L): 508.6 U/L
  ALT (U/L): 250.8 U/L
  AST (U/L): 820.8 U/L
  Creatine kinase (U/L): 272 U/L
  GGT (U/L): 11 U/L
  Total Bilirubin: 0.4 mg/dL
Mouse TTR gene
  efficacy for in vivo editing (in words): efficacious

## CCCCC/C=C\C/C=C\CCCCCCCC(=O)OCC(COC(=O)CCCCCCC/C=C\C/C=C\CCCCC)OC(=O)CCC(CCCCCC)OC(=O)OCCCN1CCCC1 (stereo not drawn) [Compound 45, 2-((4-(((3-(pyrrolidin-1-yl)propoxy)carbonyl)oxy)decanoyl)oxy)propane-1,3-diyl (9Z,9′Z,12Z,12′Z)-bis(octadeca-9,12-dienoate)]
[1]
  ALP (U/L): 439.8 U/L
  ALT (U/L): 163.2 U/L
  AST (U/L): 681 U/L
  Creatine kinase (U/L): 1103 U/L
  GGT (U/L): 2.4 U/L
  Total Bilirubin: 0.3 mg/dL

## CCCCC/C=C\C/C=C\CCCCCCCC(=O)OCC(COC(=O)CCCCCCC/C=C\C/C=C\CCCCC)OC(=O)CCC(CCCCCCCC)OC(=O)NCCN(C)CC (stereo not drawn) [Compound 34, 2-((4-(((2-(ethyl(methyl)amino)ethyl)carbamoyl)oxy)dodecanoyl)oxy)propane-1,3-diyl (9Z,9′Z,12Z,12′Z)-bis(octadeca-9,12-dienoate)]
[1]
  ALP (U/L): 542 U/L
  ALT (U/L): 179.6 U/L
  AST (U/L): 349.6 U/L
  Creatine kinase (U/L): 184.8 U/L
  GGT (U/L): 3.4 U/L
  Total Bilirubin: 0.2 mg/dL
